Measurements published in patent publication US20200199102A1, “COMPOUNDS THAT PARTICIPATE IN COOPERATIVE BINDING AND USES THEREOF” (Revolution Medicines, Inc., priority 2017, published 2020).
Where a SMILES comes first, the peptide text is derived from it. [ ]: non-standard residue; d: D form. MeBmt = C/C=C/C[C@@H](C)[C@@H](O)[C@H](NC)C(=O)O; NMeY = CN[C@@H](Cc1ccc(O)cc1)C(=O)O; NMeF = CN[C@@H](Cc1ccccc1)C(=O)O; NMeI = CC[C@H](C)[C@H](NC)C(=O)O; NMeT = CN[C@H](C(=O)O)[C@@H](C)O; NMeL = CN[C@@H](CC(C)C)C(=O)O; Tle = CC(C)(C)[C@H](N)C(=O)O; NMeV = CN[C@H](C(=O)O)C(C)C; NMeA = CN[C@@H](C)C(=O)O; dNMeA = CN[C@H](C)C(=O)O; Abu = CC[C@H](N)C(=O)O; Sar = CNCC(=O)O

Molecular target: T1, Cyclophilin A (Homo sapiens, UniProt P62937)
T1 construct: made in house
Experiment: AlphaLISA inhibition of binding of biotinylated Cyclosporin A to FLAG tagged Cyclophilin A
Conditions: for % signal: AlphaLISA signal; for % signal / % inhibition of CsA binding to Cyclophilin A: test concentration not given; for IC50: read-out: IC50 value of CsA binding to Cyclophilin A
Text: The binding of compounds of the invention to Cyclophilin A can be determined using the following protocol.
This protocol utilizes Perkin Elmers AlphaLISA technology platform to detect cyclosporine analogues by measuring the inhibition of binding of biotinylated Cyclosporin A to FLAG tagged Cyclophilin A.
10×TBST Buffer (Boston BioProducts IBB-181), Biotinylated Cyclosporin A (in-house), FLAG tagged Cyclophilin A (in-house); anti-FLAG Donor beads (PerkinElmer AS103) and Streptavidin Acceptor beads (PerkinElmer AL125); Compounds in DMSO (in-house), Cyclosporin A (LC Labs Cat #C-6000).
Add 20 uL of 6 nM Biotinylated CsA working stock to each well of the 96-well plate. Add 1 uL of test compound (100% DMSO) to each well of the plate using the Janus MTD head and P20 tips (except control wells). Add 1 uL of DMSO to negative control wells and 1 uL of 500 uM Cyclosporin A solution to positive control wells. In the dark, add 20 uL of combined Donor/Acceptor beads to each well. Incubate in the dark for 30 minutes at room temperature. In the dark, add 10 uL of 25 nM Flag tagged CypA working stock to each well. Incubate in the dark for 60 minutes at room temperature. Protect plate from light until reading on Biotek Synergy2 Plate Reader; Alphalisa 96-well protocol (680 excitation/615 emission).

T1 sequence (P62937 whole entry, species assumed): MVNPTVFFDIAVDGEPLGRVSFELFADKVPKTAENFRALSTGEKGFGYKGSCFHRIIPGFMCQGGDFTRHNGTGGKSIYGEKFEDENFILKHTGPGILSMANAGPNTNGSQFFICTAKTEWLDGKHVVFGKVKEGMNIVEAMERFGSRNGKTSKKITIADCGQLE

Row | Structure (SMILES) | % signal [%] | IC50 [µM] | % inhibition of CsA binding to Cyclophilin A [%]
1 | C/C=C/C[C@@H](C)[C@@H](O)[C@H]1C(=O)N[C@@H](CC)C(=O)N(C)CC(=O)N(C)[C@@H](Cc2ccccc2)C(=O)N[C@@H](C)C(=O)N(C)CC(=O)N[C@@H](C)C(=O)N[C@H](C)C(=O)N(C)[C@@H](CC(C)C)C(=O)N(C)[C@@H](CC(C)C)C(=O)N(C)[C@@H](C(C)C)C(=O)N1C [Compound C20] (cyclo([MeBmt][Abu][Sar][NMeF]A[Sar]A[dA][NMeL][NMeL][NMeV])) | 2.77 | < 2 | 97.23
2 | C/C=C/C[C@@H](C)[C@@H](O)[C@H]1C(=O)N[C@@H](CC)C(=O)N(C)CC(=O)N(C)[C@@H]([C@@H](C)O)C(=O)N[C@@H](C(C)C)C(=O)N(C)CC(=O)N[C@@H](C)C(=O)N[C@H](C)C(=O)N(C)[C@@H](CC(C)C)C(=O)N(C)[C@@H](CC(C)C)C(=O)N(C)[C@@H](C(C)C)C(=O)N1C [Compound C31] (cyclo([MeBmt][Abu][Sar][NMeT]V[Sar]A[dA][NMeL][NMeL][NMeV])) | −0.03 | < 2 | 100.03
3 | C/C=C/C[C@@H](C)[C@@H](O)[C@H]1C(=O)N[C@@H](CC)C(=O)N(C)CC(=O)N(C)[C@@H](Cc2ccc(O)cc2)C(=O)N[C@@H](CC(C)C)C(=O)N(C)[C@@H](C)C(=O)N[C@@H](C)C(=O)N[C@H](C)C(=O)N(C)[C@@H](CC(C)C)C(=O)N(C)[C@@H](CC(C)C)C(=O)N(C)[C@@H](C(C)C)C(=O)N1C [Compound C16] (cyclo([MeBmt][Abu][Sar][NMeY]L[NMeA]A[dA][NMeL][NMeL][NMeV])) | 2.56 | < 2 | 97.44
4 | C/C=C/C[C@@H](C)[C@@H](O)[C@H]1C(=O)N[C@@H](CC)C(=O)N(C)CC(=O)N(C)[C@H](C)C(=O)N[C@@H](C)C(=O)N(C)CC(=O)N[C@@H](C)C(=O)N[C@H](C)C(=O)N(C)[C@@H](CC(C)C)C(=O)N(C)[C@@H](CC(C)C)C(=O)N(C)[C@@H](C(C)C)C(=O)N1C [Compound C19] (cyclo([MeBmt][Abu][Sar][dNMeA]A[Sar]A[dA][NMeL][NMeL][NMeV])) | 16.79 | < 2 | 83.21
5 | C/C=C/C[C@@H](C)[C@@H](O)[C@H]1C(=O)N[C@@H](CC)C(=O)N(C)CC(=O)N(C)[C@H](C)C(=O)N[C@@H](C(C)(C)C)C(=O)N(C)[C@@H](C)C(=O)N[C@@H](CC(C)C)C(=O)N[C@H](C)C(=O)N(C)[C@@H](CC(C)C)C(=O)N(C)[C@@H](CC(C)C)C(=O)N(C)[C@@H](C(C)C)C(=O)N1C [Compound C71] (cyclo([MeBmt][Abu][Sar][dNMeA][Tle][NMeA]L[dA][NMeL][NMeL][NMeV])) | −0.05 | < 2 | 100.05
6 | C/C=C/C[C@@H](C)[C@@H](O)[C@H]1C(=O)N[C@@H](CC)C(=O)N(C)CC(=O)N(C)[C@@H]([C@@H](C)CC)C(=O)N[C@@H](C(C)C)C(=O)N(C)[C@@H](CC(C)C)C(=O)N[C@@H](CC)C(=O)N[C@H](C)C(=O)N(C)[C@@H](CC(C)C)C(=O)N(C)[C@@H](CC(C)C)C(=O)N(C)[C@@H](C(C)C)C(=O)N1C [Compound C93] (cyclo([Abu][Sar][NMeI]V[NMeL][Abu][dA][NMeL][NMeL][NMeV][MeBmt])) | 1.28 | < 2 | 98.72
7 | C/C=C/C[C@@H](C)[C@@H](O)[C@H]1C(=O)N[C@@H](CC)C(=O)N(C)CC(=O)N(C)[C@@H](C(C)C)C(=O)N[C@@H](CC(C)C)C(=O)N(C)[C@@H](CC(C)C)C(=O)N[C@@H](CC(C)C)C(=O)N[C@H](C)C(=O)N(C)[C@@H](CC(C)C)C(=O)N(C)[C@@H](CC(C)C)C(=O)N(C)[C@@H](C(C)C)C(=O)N1C [Compound C65] (cyclo([MeBmt][Abu][Sar][NMeV]L[NMeL]L[dA][NMeL][NMeL][NMeV])) | 0.27 | < 2 | 99.73
8 | C/C=C/C[C@@H](C)[C@@H](O)[C@H]1C(=O)N[C@@H](CC)C(=O)N(C)CC(=O)N(C)[C@@H](C)C(=O)N[C@@H](CC(C)C)C(=O)N(C)[C@@H](C)C(=O)N[C@@H](C)C(=O)N[C@H](C)C(=O)N(C)[C@@H](CC(C)C)C(=O)N(C)[C@@H](CC(C)C)C(=O)N(C)[C@@H](C(C)C)C(=O)N1C [Compound C10] (cyclo([MeBmt][Abu][Sar][NMeA]L[NMeA]A[dA][NMeL][NMeL][NMeV])) | 0.56 | < 2 | 99.44

Results, then the compound that gave them:

Row | % signal [%] | IC50 [µM] | % inhibition of CsA binding to Cyclophilin A [%] | Structure (SMILES)
9 | 4.70 | < 2 | 95.30 | C/C=C/C[C@@H](C)[C@@H](O)[C@H]1C(=O)N[C@@H](CC)C(=O)N(C)CC(=O)N(C)[C@@H](CC(C)C)C(=O)N[C@@H](C(C)C)C(=O)N(C)[C@@H](CC(C)C)C(=O)N[C@@H](CC)C(=O)N[C@H](C)C(=O)N(C)[C@@H](CC(C)C)C(=O)N(C)[C@@H](CC(C)C)C(=O)N(C)[C@@H](C(C)C)C(=O)N1C [Compound C98]
10 | 6.90 | < 2 | 93.10 | C/C=C/C[C@@H](C)[C@@H](O)[C@H]1C(=O)N[C@@H](CC)C(=O)N(C)CC(=O)N(C)[C@H](C)C(=O)N[C@@H](C(C)C)C(=O)N(C)[C@@H](CC(C)C)C(=O)N[C@@H](CC)C(=O)N[C@H](C)C(=O)N(C)[C@@H](CC(C)C)C(=O)N(C)[C@@H](CC(C)C)C(=O)N(C)[C@@H](C(C)C)C(=O)N1C [Compound C95] (cyclo([Abu][Sar][dNMeA]V[NMeL][Abu][dA][NMeL][NMeL][NMeV][MeBmt]))
11 | 17.23 | < 2 | 82.77 | C/C=C/C[C@@H](C)[C@@H](O)[C@H]1C(=O)N[C@@H](CC)C(=O)N(C)CC(=O)N(C)[C@@H](CC(C)C)C(=O)N[C@@H](C(C)C)C(=O)N(C)[C@@H](C)C(=O)N[C@@H](CC(C)C)C(=O)N[C@H](C)C(=O)N(C)[C@@H](CC(C)C)C(=O)N(C)[C@@H](CC(C)C)C(=O)N(C)[C@@H](C(C)C)C(=O)N1C [Compound C86] (cyclo([MeBmt][Abu][Sar][NMeL]V[NMeA]L[dA][NMeL][NMeL][NMeV]))
12 | 11.76 | < 2 | 88.24 | C/C=C/C[C@@H](C)[C@@H](O)[C@H]1C(=O)N[C@@H](CC)C(=O)N(C)CC(=O)N(C)[C@H](C)C(=O)N[C@@H](CC(C)C)C(=O)N(C)[C@@H](CC(C)C)C(=O)N[C@@H](CC(C)C)C(=O)N[C@H](C)C(=O)N(C)[C@@H](CC(C)C)C(=O)N(C)[C@@H](CC(C)C)C(=O)N(C)[C@@H](C(C)C)C(=O)N1C [Compound C59] (cyclo([MeBmt][Abu][Sar][dNMeA]L[NMeL]L[dA][NMeL][NMeL][NMeV]))
13 | 3.38 | < 2 | 96.62 | C/C=C/C[C@@H](C)[C@@H](O)[C@H]1C(=O)N[C@@H](CC)C(=O)N(C)CC(=O)N(C)[C@@H]([C@@H](C)O)C(=O)N[C@@H](C(C)C)C(=O)N(C)[C@@H](CC(C)C)C(=O)N[C@@H](CC(C)C)C(=O)N[C@H](C)C(=O)N(C)[C@@H](CC(C)C)C(=O)N(C)[C@@H](CC(C)C)C(=O)N(C)[C@@H](C(C)C)C(=O)N1C [Compound C51] (cyclo([MeBmt][Abu][Sar][NMeT]V[NMeL]L[dA][NMeL][NMeL][NMeV]))
